Results on six molecules are retold here after patent US11603524B2 (priority 2015, dated 2023).

Data set [1] has as its target T1, Bce, oxalate decarboxylase from Bacillus cereus, SEQ ID NO: 1 (Bacillus cereus, UniProt Q81GZ6). Particulars: 2 mM chemical, 6 days at 40° C., pH 9.5, tested at pH 3, against Bce 40° C. control.
The subject of data set [2] is oxalate decarboxylases A8, Cb6301, Cb6312, Cb6803 and Bce. Kind of data set: Affinity for oxalate of A8, Cb6301, Cb6312, Cb6803 and Bce (range). It counts as biochemical. Here is the method: (§1) The enzyme kinetics of OxDC from four different species, Bce, Bcl, Cb6301_D29, and A8 were measured and compared to known kinetic data of YvrK. […] The reaction was terminated by adding 2.5N H2SO4, and analyzed for formate content by HPLC, as described in Example 1. The reaction without oxalate was included as negative control. The initial reaction rates during the first 5 minutes were determined for substrate concentrations between 0.024-12.5 mM, using same procedure described in Example 1.

For data set [3], the system named is YvrK, oxalate decarboxylase from Bacillus subtilis, SEQ ID NO: 47. Conditions: cited from earlier work.
Data set [4] deals with oxalate decarboxylase (OxDC) enzymes of Table 5. Kind of data set: Catalytic efficiency of the OxDC enzymes (range). Particulars: see Table 5. The class given is biochemical. Here is the method:
as §1

In data set [5] the target is T1, Bce, oxalate decarboxylase from Bacillus cereus, SEQ ID NO: 1. As to the kind of experiment: Enzyme kinetics, oxalate degradation by Bce OxDC. Particulars: pH 3.0 and below.
The target of data set [6] is T2, Cb6301, oxalate decarboxylase from Synechococcus elongates 6301, SEQ ID NO: 2 (Synechococcus elongatus, UniProt A0A0H3K3X3).
T2 construct: native trimer; the kinetic measurement was probably on the D29 form
T2 sequence (A0A0H3K3X3 1-389): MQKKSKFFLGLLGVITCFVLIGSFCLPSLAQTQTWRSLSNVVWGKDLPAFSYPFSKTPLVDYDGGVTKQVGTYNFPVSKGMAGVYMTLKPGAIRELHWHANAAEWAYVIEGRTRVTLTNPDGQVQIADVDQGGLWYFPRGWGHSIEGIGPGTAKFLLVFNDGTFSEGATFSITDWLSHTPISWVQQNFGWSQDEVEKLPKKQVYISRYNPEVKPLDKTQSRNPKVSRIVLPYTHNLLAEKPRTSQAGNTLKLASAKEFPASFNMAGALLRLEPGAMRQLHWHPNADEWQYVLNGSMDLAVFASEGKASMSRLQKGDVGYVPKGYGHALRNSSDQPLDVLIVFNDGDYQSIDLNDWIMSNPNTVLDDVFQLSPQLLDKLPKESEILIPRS
As to the kind of experiment: Enzyme kinetics, oxalate, Cb6301 OxDC. It counts as biochemical. Conditions: Cb6301, pH 3.0 and below. Here is the method: as §1

Data set [7] has as its target T3, A8/A0, oxalate decarboxylase from Agrocybe aegerita, SEQ ID NO: 42 (Cyclocybe aegerita, UniProt A0A8S0X585).
T3 construct: A0 from fungal cells (homogenate), A8 from culture supernatant of A. aegerita; A8 also recombinant in E. coli (pColdIV, pOTIpr or pET)
T3 sequence (A0A8S0X585 with tags, fused parts or gaps): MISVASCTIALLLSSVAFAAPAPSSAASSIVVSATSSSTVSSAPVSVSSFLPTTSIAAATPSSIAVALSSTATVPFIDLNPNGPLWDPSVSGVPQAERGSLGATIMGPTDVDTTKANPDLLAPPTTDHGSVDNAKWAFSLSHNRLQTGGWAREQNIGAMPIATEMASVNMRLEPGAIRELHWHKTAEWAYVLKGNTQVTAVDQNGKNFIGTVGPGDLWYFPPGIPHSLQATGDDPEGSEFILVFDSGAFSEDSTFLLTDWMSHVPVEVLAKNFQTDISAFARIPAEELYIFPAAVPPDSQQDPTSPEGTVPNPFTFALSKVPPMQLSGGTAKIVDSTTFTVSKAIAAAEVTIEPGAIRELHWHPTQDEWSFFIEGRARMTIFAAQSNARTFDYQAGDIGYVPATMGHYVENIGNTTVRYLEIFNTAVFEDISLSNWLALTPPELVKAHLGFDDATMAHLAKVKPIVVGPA
As to the kind of experiment: Enzyme kinetics, oxalate degradation by A8/A0 OxDC. The class given is biochemical. As for the experimental part: (§2) The enzyme kinetics of OxDC from four different species, Bce, Bcl, Cb6301_D29, and A8 were measured and compared to known kinetic data of YvrK. […] The A8 enzyme was measured at four independent pH's of: 5.0, 4.0, 3.5 and 3.0. […] The reaction was terminated by adding 2.5N H2SO4, and analyzed for formate content by HPLC, as described in Example 1. The reaction without oxalate was included as negative control. The initial reaction rates during the first 5 minutes were determined for substrate concentrations between 0.024-12.5 mM, using same procedure described in Example 1.
(§3) To determine the kinetic parameters, kcat and Km, the reaction rates v0 at different substrate concentration [S] were fit to Michaelis-Menten equation in KaleidaGraph software: v0=kcat*[E]t*[S]/(Km+[S])
(§4) Unprotonated glutamic acids in an undisrupted active site are more likely to be kept unprotonated than the equivalent residues in a disrupted active site (such as the active site of a disrupted hexamer).

A further data set has as its system O=C(O)C(=O)O. Kind of data set: purified protein, by the assay type. Particulars: other: Bce, pH 3.0, 37° C.
Substrate in data set [8]: O=C(O)C(=O)O
As to the kind of experiment: purified protein, by the assay type. Conditions: other: Bcl, oxalate, pH 3.0, 37° C. The class given is biochemical, Bacillus clausii.

Substrate in data set [9]: O=C(O)C(=O)O
Kind of data set: purified protein, by the assay type. The class given is biochemical, Agrocybe aegerita. Here is the method: as §2, §3, §4

Substrate in data set [10]: O=C(O)C(=O)O
Kind of data set: purified protein, by the assay type. It counts as biochemical, Synechococcus elongates 6301. Conditions: other: Cb6301_D29, oxalate, pH 3.0, 37° C. Here is the method:
as §2, §3

Where [11] appears, read: other: A8, pH 3.0, 37° C., pH 3.0, 37.0 °C.

Read-outs that look alike come from different tables or passages of the source.

T1 sequence (Q81GZ6 entry or part of it): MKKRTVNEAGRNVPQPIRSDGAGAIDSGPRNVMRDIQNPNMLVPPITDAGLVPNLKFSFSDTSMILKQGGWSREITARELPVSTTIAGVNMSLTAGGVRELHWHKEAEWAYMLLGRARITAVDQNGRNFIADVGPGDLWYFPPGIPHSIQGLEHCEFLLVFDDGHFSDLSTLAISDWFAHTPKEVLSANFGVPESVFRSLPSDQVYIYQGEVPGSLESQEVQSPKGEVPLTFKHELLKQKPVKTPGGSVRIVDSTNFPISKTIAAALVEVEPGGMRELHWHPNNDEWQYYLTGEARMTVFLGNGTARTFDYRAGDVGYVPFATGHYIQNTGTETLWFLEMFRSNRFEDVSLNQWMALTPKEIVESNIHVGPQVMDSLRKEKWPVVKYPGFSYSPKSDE

Turning to `O=C(O)CN(CCN(CC(=O)O)CC(=O)O)CC(=O)O` [EDTA], the enzyme activity entry in [1] is “decreases significantly”.

For `O=C(O)C(=O)O` [oxalate], the Michaelis constant (Km) – broadly, the concentration of substrate that gives half-maximal velocity – in data set [2] was 80 to 500 µM; in data set [3] (YvrK, oxalate, pH 4.2, 22° C.), 8400 µM; in [3] (YvrK, pH 4.0) it was 8400 µM; in [3] (Yvrk, pH not given), 8400 µM; in data set [5], less than 1000 µM; in data set [6], less than 1000 µM. Besides, the Km in data set [7] (A8/A0, pH 3.0 and below) was less than 1000 µM. Moreover, the kcat (usually the maximal rate divided by the concentration of active sites) in data set [3] (YvrK, pH 4.2, 22° C.) was 53 s⁻¹. Further, in data set [3] (YvrK, pH 4.2, 22° C.), the kcat/KM (commonly the turnover number divided by the Michaelis constant) was 6310 M⁻¹ s⁻¹. Further, the catalytic efficiency in data set [4] is 871-77000 conversions/M/s. Moreover, in data set [7] (A8, pH 5.0, 4.0, 3.5 and 3.0), the “Km as a function of pH” value is recorded as “decreases as the pH becomes more acidic”.

“Bce, oxalate decarboxylase from Bacillus cereus, SEQ ID NO: 1 (Bacillus cereus ATCC 14579)”: in the data set with O=C(O)C(=O)O, the kcat came to 11.2 s⁻¹ and the kcat/Km (as a rule, the turnover number divided by the Michaelis constant) is 35000 M⁻¹ s⁻¹.

B1: Bcl, oxalate decarboxylase from Bacillus clausii, SEQ ID NO: 41 (Shouchella clausii KSM-K16) (protein)
chain: MKRGDNVKPLKGNPNIPQPIRADGAGGVDRGPRNLMRDLQNPNILVPPETDRGLIPNLRFSFSDAHMQLNHGGWSREITQRDLPIATTLAGVNMSLTPGGVRELHWHKQAEWSYMLLGHARITAVDQNGRNFIADVGPGDLWYFPPGIPHSIQGLDDGCEFLLVFDDGMFSDLSTLSLSDWMAHTPKDVLSANFGVPESVFATIPTEQVYIYQDEVPGPLQSQQINSPYGAVPQTFKHELLKQPPLVTPGGSVRIVDSRNFPVSKTIAAALVEVEPGAMREMHWHPNNDEWQYYLTGQARMTVFTGNGVARTFDYRAGDVGYVPFATGHYIQNTGNESVWFLEMFKSDRFEDVSLNQWLALTPTELVQHNIHVDSKFTNKLRKEKWPVVKYPTI
B1: in data set [8], the Michaelis constant (Km) was 1200 µM, the kcat is 1.05 s⁻¹ and the specificity constant (kcat/Km) came out at 871 M⁻¹ s⁻¹.

B2: A8/A0, oxalate decarboxylase from Agrocybe aegerita, SEQ ID NO: 42 (Cyclocybe aegerita) (protein)
chain: MISVASCTIALLLSSVAFAAPAPSSAASSIVVSATSSSTVSSAPVSVSSFLPTTSIAAATPSSIAVALSSTATVPFIDLNPNGPLWDPSVSGVPQAERGSLGATIMGPTDVDTTKANPDLLAPPTTDHGSVDNAKWAFSLSHNRLQTGGWAREQNIGAMPIATEMASVNMRLEPGAIRELHWHKTAEWAYVLKGNTQVTAVDQNGKNFIGTVGPGDLWYFPPGIPHSLQATGDDPEGSEFILVFDSGAFSEDSTFLLTDWMSHVPVEVLAKNFQTDISAFARIPAEELYIFPAAVPPDSQQDPTSPEGTVPNPFTFALSKVPPMQLSGGTAKIVDSTTFTVSKAIAAAEVTIEPGAIRELHWHPTQDEWSFFIEGRARMTIFAAQSNARTFDYQAGDIGYVPATMGHYVENIGNTTVRYLEIFNTAVFEDISLSNWLALTPPELVKAHLGFDDATMAHLAKVKPIVVGPA
notes: A0 from fungal cells (homogenate), A8 from culture supernatant of A. aegerita; A8 also recombinant in E. coli (pColdIV, pOTIpr or pET)
Turning to B2, the Michaelis-Menten constant (Km) in data set [9] (other: A0, pH not given) came out at 80 µM. Besides, in data set [9] (setting [11]), the catalytic constant (kcat) is 42 s⁻¹ and the catalytic efficiency (kcat/Km) is 525000 M⁻¹ s⁻¹.

B3: Cb6301_D29, oxalate decarboxylase from Synechococcus elongates 6301 where the first 29 amino acids at the n-terminus has been removed, SEQ ID NO: 3 … (protein)
chain: MQTQTWRSLSNVVWGKDLPAFSYPFSKTPLVDYDGGVTKQVGTYNFPVSKGMAGVYMTLKPGAIRELHWHANAAEWAYVIEGRTRVTLTNPDGQVQIADVDQGGLWYFPRGWGHSIEGIGPGTAKFLLVFNDGTFSEGATFSITDWLSHTPISWVQQNFGWSQDEVEKLPKKQVYISRYNPEVKPLDKTQSRNPKVSRIVLPYTHNLLAEKPRTSQAGNTLKLASAKEFPASFNMAGALLRLEPGAMRQLHWHPNADEWQYVLNGSMDLAVFASEGKASMSRLQKGDVGYVPKGYGHALRNSSDQPLDVLIVFNDGDYQSIDLNDWIMSNPNTVLDDVFQLSPQLLDKLPKESEILIPRS
notes: start Met followed by residues 31-389), recombinant in E. coli
With B3, in [10], the Michaelis-Menten constant (Km) came out at 200 µM, the kcat came to 15.4 s⁻¹ and the specificity constant (kcat/Km) was 77000 M⁻¹ s⁻¹.
